Results on four compounds are retold here after patent US20120196830A1, “KITS AND IMPROVED COMPOSITIONS FOR TREATING LOWER URINARY TRACT DISORDERS” (priority 2005, published 2012).

For series [1], the system named is IC patients. Conditions: intravesical instillations; cited from earlier work.
The subject of a further series is cancer patients. Conditions: cited from earlier work.
Series [2] is described as follows: Uncharged fraction of lidocaine by Henderson-Hasselbalch equation. It counts as physicochemical. The text has this: For the acute-acting anesthetic to function properly, it typically needs to be in a pH environment that enables the chemical form of the drug to be neutral thereby allowing the molecule to traverse the membranes and gain access to the neurons underlying the bladder epithelium. To achieve this pH, a buffer must be provided so that the pH is sufficiently near to the isoelectric point of the chosen anesthetic to ensure that a sufficient portion of the acute-acting anesthetic is present in an uncharged state. A sufficient portion can minimally be 20% up to 100% in its uncharged state and those skilled in the art can use the drug's isoelectric point and the Henderson-Hasselbalch equation to calculate the minimal pH of the solution to achieve the 20% minimal uncharged amount. Preferably, the pH of the solution is such that at least about 40% of the acute-acting anesthetic is present in an uncharged state. […]. This buffering can be achieved by the addition of bicarbonate buffer, Tris (Tris(hydroxymethyl)aminomethane) buffer, MOPS buffer (3-(N-morpholino)propanesulfonic acid), HEPES (N-(2-hydroxyethyl)piperazine-N′-(2-ethanesulfonic acid) buffer, ACES (2-[(2-amino-2-oxoethyl)amino]ethanoesulfonic acid) buffer, ADA (N-(2-acetamido)-2-iminodiacetic acid) buffer, AMPSO (3-[(1,1-dimethyl-2-hydroxyethyl)amino]-2-propanesulfonic acid) buffer, BES (N,N-bis(2-hydroxyethyl)-2-aminoethanesulfonic acid buffer, Bicine (N,N-bis(2-hydroxyethylglycine) buffer, Bis-Tris (bis-(2-hydroxyethyl)imino-tris(hydroxymethyl)methane buffer, CAPS (3-(cyclohexylamino)-1-propanesulfonic acid) buffer, CAPSO (3-(cyclohexylamino)-2-hydroxy-1-propanesulfonic acid) buffer, CHES (2-(N-cyclohexylamino)ethanesulfonic acid) buffer, DIPSO (3-[N,N-bis(2-hydroxyethyl)amino]-2-hydroxy-propanesulfonic acid) buffer, HEPPS(N-(2-hydroxyethylpiperazine)-N′-(3-propanesulfonic acid), buffer, HEPPSO(N-(2-hydroxyethyl)piperazine-N′-(2-hydroxypropanesulfonic acid) buffer, MES (2-(N-morpholino)ethanesulfonic acid) buffer, triethanolamine buffer, imidazole buffer, glycine buffer, ethanolamine buffer, phosphate buffer, MOPSO (3-(N-morpholino)-2-hydroxypropanesulfonic acid) buffer, PIPES (piperazine-N,N′-bis(2-ethanesulfonic acid) buffer, POPSO (piperazine-N,N′-bis(2-hydroxypropaneulfonic acid) buffer; TAPS(N-tris[hydroxymethyl)methyl-3-aminopropanesulfonic acid) buffer, TAPSO (3-[N-tris(hydroxymethyl)methylamino]-2-hydroxy-propanesulfonic acid) buffer, TES (N-tris(hydroxymethyl)methyl-2-aminoethanesulfonic acid) buffer, tricine (N-tris(hydroxymethyl)methylglycine buffer), 2-amino-2-methyl-1,3-propanediol buffer, 2-amino-2-methyl-1-propanol buffer, or another buffer that can buffer the composition to be administered at the appropriate pH value. The buffer to be selected, and the concentration of the buffer to be used, can be chosen by one of ordinary skill in the art to buffer the composition to be administered at a pH value that is close to the isoelectric point of the local anesthetic. […]. For bupivacaine, it is 8.1. For etidocaine, it is 7.7. For flecamide, it is 9.3. Typically, the pH achieved by the use of the buffer is between about 7.0 and about 12.0. More typically, the pH achieved by the use of the buffer is between about 7.0 and about 9.5. Typically, when bicarbonate buffer is used, it is sodium bicarbonate buffer; however, other counterions can be used as described above.

For series [3], the system named is IC patients. The following applies: intravesical, interstitial cystitis; cited from earlier work.

Read-outs that look alike come from different tables or passages of the source.

In the case of `C[S+](C)[O-]` [DMSO, dimethylsulfoxide], the “IC patients treated with benefit” value with IC patients [1] is given as ~50%.

As to `O=S(=O)(O)CCS` [Mesnex, mesna], the “frequency of adverse events (all AEs)” value in the series with cancer patients (IV) is recorded as 85%; in the series with cancer patients (oral) it was 89%.

`CCN(CC)CC(=O)Nc1c(C)cccc1C` [lidocaine]: the lidocaine uncharged in series [2] (pH 6.6) is reported as 5%; in series [2] (pH 7.0), 10%; in series [2] (pH 7.2) it was 20%; in series [2] (pH 7.5) it was 30%; in series [2] (pH 7.7), 40%; in series [2] (pH 7.9) it was 50%.

For the compound heparin, the “patients treated in whom effective” value with IC patients [3] is on record as “approximately 50%”.
